# Data taken from publication PMC8840081, “Phenylalanine-Based AMPA Receptor Antagonist as the Anticonvulsant Agent with Neuroprotective Activity—In Vitro and In Vivo Studies” (Molecules, 2022).
# pKi: −log10 of the molar value. Where “and” joins values, the source holds several entries; their conditions need not be identical. Identical values can stand only once.
# What was measured:
# [1] = test system: electrically induced seizures in mice; test: maximal electroshock (MES) test; type: in vivo; settings: 100 mg/kg i.p.
# Protocol: Behavioral experiments were carried out in male Albino Swiss (CD-1) mice weighing 18–22 g. The mice were kept in cages, in groups of 10 animals. They had free access to food and water before experiments, and were maintained at room temperature 22–24 °C, under 12:12 (light/dark) cycle. For the assays the animals were selected randomly. After the experiments the animals were euthanized by cervical dislocation. Experimental procedures for in vivo tests were approved by the Local Ethics Committee of the Jagiellonian University in Krakow (Approval No. 33/2018; release date: 1.02.2018) and the treatment of animals was performed in full accordance with ethical standards laid down in respective Polish and EU regulations (Directive 2010/63/EU).
# Oxaliplatin was purchased from Activate Scientific GmbH (Prien, Germany). PTZ and STZ were provided by Merck KGaA (Darmstadt, Germany). For the in vivo tests, the compound 1 was suspended in 1% Tween 80 solution (Polskie Odczynniki Chemiczne, Gliwice, Poland), then being administered intraperitoneally 1 h before tests. For the evaluation of anticonvulsant properties of the test compound, a fixed dose of 100 mg/kg, was used. Since many AEDs at lower doses are used as analgesic drugs, for pain tests the doses 10 and 30 mg/kg were selected.
# MES test was performed as described previously. […]
# SH-SY5Y cells = test: ROS assay (DCFH-DA), H2O2-induced ROS accumulation; type: cell-based, human; settings: compound 50 µM, 500 µM H2O2, 3 h
# Protocol: All cell culture protocols and assay conditions were applied as we reported previously. SH-SY5Y (ATCC® CRL-2266™) cell line was purchased from ATCC (Manassas, VA, USA). IMR-32 (ATCC® CCL-127™) cell line was kindly provided by the Department of Oncogenomics, Academisch Medisch Centrum, Amsterdam, Holland. Before each test SH-SY5Y or IMR-32 cells were seeded in 96-well plates with transparent bottom at a concentration of 2.5 × 10^4 cells/well in 100 μL of respective cell culture medium and cultured for 24 h to reach 70% confluence. • Cell Viability
# During this assay SH-SY5Y cells were preincubated first for 1 h with 250 μM solution of DCFH-DA (Sigma-Aldrich, Inc., St. Louis, MO, USA) in HBSS buffer. After DCFH-DA was removed, cells were washed with HBSS and incubated next for 1 h with 50 μM of compound 1 or 8. Next, the H2O2 was added at final concentration 500 μM. After 3 h of incubation, the fluorescence was measured using a microplate reader EnSpire (PerkinElmer, Waltham, MA, USA) with an excitation wavelength of 486 nm and emission wavelength of 530 nm. All measurements were performed in triplicate and results are shown as mean ± SD.
# native AMPA receptors = settings: cited from earlier work
# [2] = ferric reducing antioxidant power (FRAP) assay; settings: % of ascorbic acid activity; compounds and AA at 1 mM
# Protocol: The total antioxidant potential of aryl-substituted phenylalanine derivatives was determined using FRAP assay. The FRAP reagent was prepared first by mixing acetate buffer (300 mM, pH 3.6), a solution of 10 mM TPTZ (2,4,6-tripyridyl-s-triazine, Sigma-Aldrich, Inc., St. Louis, MO, USA) in 40 mM HCl and 20 mM of iron (III) chloride hexahydrate (FeCl3 × 6H2O, Chempur, Piekary Śląskie, Poland) at 10:1:1 (v/v/v). The FRAP reagent (190 μL) and 1 mM of tested compound (10 μL) was added next to each well, mixed and incubated for 30 min. The absorbance was measured using a microplate reader EnSpire (PerkinElmer, Waltham, MA USA) at 593 nm. AA (1 mM, AMARA, Kraków, Poland) was used as the reference antioxidant. The results were expressed as % of ascorbic acid activity (%AAA). Analyses were performed in triplicate. • ORAC-FL
# [3] = oxygen radical absorbance capacity fluorescent (ORAC-FL) assay; settings: Trolox equivalent, calculated at 5 µM of compounds and Trolox
# Protocol: The ORAC-FL was performed according to procedure described in the literature. The reagents used in this assay, TX, fluorescein and 2,2′-azobis(2-amidinopropane) dihydrochloride (AAPH), were purchased from Sigma-Aldrich, Inc., St. Louis, MO, USA. The prepared ORAC-FL reagent consisted of 0.3 μM of fluorescein and 100 µM of AAPH dissolved in PBS buffer. The compounds and the reference antioxidant TX were tested at the concentration 2.5 µM and the results were compared to the blank in which no antioxidant was present. The assays were performed in black 96-well plates. The fluorescence readings were taken by a microplate reader EnSpire (PerkinElmer, Waltham, MA, USA) every minute for a duration of 240 min. The excitation wavelength was 485 nm and the emission wavelength was 520 nm. The area under the fluorescence decay curve (AUC) was calculated next by GraphPad Prism™ software (version 5.01, San Diego, CA, USA). All measurements were performed in triplicate. The TX equivalent (TE) was calculated next using the following Equation (1):TE = [(AUCsample − AUCblank)/(AUCTX − AUCblank)] × [CTX/Csample](1)
structure (smiles),measurement,setting,value
NC(Cc1cc(-c2cc(O)ccc2O)c(Cl)c([N+](=O)[O-])c1)C(=O)O (stereo not shown) [Compound 1],Mortality rate (%),[1],25%
same,"X/Y, number of mice protected (X) per number of mice tested (Y)",[1]; 1 h before test,0/4
same,intracellular ROS level,SH-SY5Y cells,statistically significant decrease
same,selectivity over NMDA and KA receptors,native AMPA receptors,high selectivity
same,pKi,"native AMPA receptors; native AMPA receptors, rat brain membranes, mean of three experiments, read-out: [3H]AMPA Ki",6.04
same,FRAP (%AAA),[2],748.5 %AAA and 748.49 %AAA
same,ORAC (TE),[3],3.46 TE
